Test results as given in ChEMBL document CHEMBL2034957, “Synthesis and antitumor evaluation of novel benzo[d]pyrrolo[2,1-b]thiazole derivatives” (Eur J Med Chem, 2012).
Calls of active or inactive are those of the source. The rule behind the calls is not given here.

Key:
CCRF-CEM [1] = test: Cytotoxicity against human CCRF-CEM cells after 72 hrs by XTT assay; format: functional, cell-based
CCRF-CEM [2] = test: Cytotoxicity against human taxol-resistant CCRF-CEM cells after 72 hrs by XTT assay; format: functional, cell-based
CCRF-CEM [3] = test: Cytotoxicity against human vinblastine-resistant CCRF-CEM cells after 72 hrs by XTT assay; format: functional, cell-based
[4] = Cytotoxicity against human H1299 cells after 72 hrs by alamar blue assay; format: functional, cell-based; conditions: NCI-H1299, 72 h
PC-3 = test: Cytotoxicity against human PC3 cells after 72 hrs by alamar blue assay; format: functional, cell-based; conditions: PC-3, 72 h
[5] = Cytotoxicity against human OECM1 cells after 72 hrs by alamar blue assay; format: functional, cell-based; conditions: OECM1, 72 h
[6] = Cytotoxicity against human U87 cells after 72 hrs by alamar blue assay; format: functional, cell-based, U-87MG ATCC; conditions: U-87 MG
CCRF-CEM [7] = test: Ratio of IC50 for human taxol-resistant CCRF-CEM cells to IC50 for human CCRF-CEM cells; format: functional
CCRF-CEM [8] = test: Ratio of IC50 for human vinblastine-resistant CCRF-CEM cells to IC50 for human CCRF-CEM cells; format: functional
MX1 [9] = test: Cytotoxicity against human MX1 cells after 72 hrs by SRB assay; format: functional, cell-based; conditions: MX1, 72 h
HCT-116 = test: Cytotoxicity against human HCT116 cells after 72 hrs by SRB assay; format: functional, cell-based; conditions: HCT-116, 72 h
Mus musculus [10] = test: Toxicity in athymic nude mouse assessed as weight loss at 20 mg/kg, iv administered q2d for 3 days followed by 25 mg/kg, iv q2d for 4 days; format: organism-based; conditions: in vivo
Mus musculus [11] = test: Toxicity in athymic nude mouse assessed as weight loss at 10 mg/kg, iv administered q2d for 4 days; format: organism-based; design: dose 10 mg/kg, route intravenous; conditions: in vivo, 96 h
Mus musculus [12] = test: Toxicity in athymic nude mouse assessed as weight loss at 30 mg/kg, iv administered q2d for 4 days; format: organism-based; design: dose 30 mg/kg, route intravenous; conditions: in vivo, 96 h
Nucleic Acid = test: Induction of Escherichia coli pEGFP-N1 DNA interstrand cross-linking at 1 to 20 uM after 2 hrs using ethidium bromide staining by alkaline agarose gel shift assay; format: nucleic-acid assay
MX1 [13] = test: Antitumor activity against human MX1 cells xenografted in athymic nude mouse assessed as tumor suppression at 10 mg/kg, iv administered q2d for 4 days; format: functional

| Structure (SMILES) | IC50 (CCRF-CEM [1]) | IC50 (CCRF-CEM [2]) | IC50 (CCRF-CEM [3]) | IC50 [4] | IC50 (PC-3) | IC50 [5] | IC50 [6] | Ratio IC50 (CCRF-CEM [7]) | Ratio IC50 (CCRF-CEM [8]) | IC50 (MX1 [9]) | IC50 (HCT-116) | Activity (Mus musculus [10]) | Activity (Mus musculus [11]) | Activity (Mus musculus [12]) | Activity (Nucleic Acid) | Activity (MX1 [13]) |
| --- | --- | --- | --- | --- | --- | --- | --- | --- | --- | --- | --- | --- | --- | --- | --- | --- |
| CC(C)NC(=O)OCc1c(COC(=O)NC(C)C)c2sc3ccccc3n2c1-c1ccc(F)c(Cl)c1 | 500 nM |  |  |  |  |  |  |  |  |  |  |  |  |  |  |  |
| CC(C)NC(=O)OCc1c(COC(=O)NC(C)C)c2sc3ccccc3n2c1-c1ccc(Cl)c(Cl)c1 | 2290 nM |  |  |  |  |  |  |  |  |  |  |  |  |  |  |  |
| CCNC(=O)OCc1c(COC(=O)NCC)c2sc3ccccc3n2c1-c1ccc(OC)c(OC)c1 | 490 nM |  |  |  |  |  |  |  |  |  |  |  |  |  |  |  |
| COc1ccc(-c2c(CO)c(CO)c3sc4ccccc4n23)cc1OC | 1820 nM |  |  |  |  |  |  |  |  |  |  |  |  |  |  |  |
| OCc1c(CO)c2sc3ccccc3n2c1-c1ccc(F)c(F)c1 | 190 nM | 190 nM | 280 nM | 21400 nM | 15200 nM | 8480 nM | 17400 nM | 1 | 1.47 |  |  |  |  |  |  |  |
| CCNC(=O)OCc1c(COC(=O)NCC)c2sc3ccccc3n2c1C1CC1 | 170 nM | 680 nM | 540 nM | 20600 nM | 24200 nM | 26300 nM | 74500 nM | 4.01 | 3.18 |  |  |  |  |  |  |  |
| CC(C)NC(=O)OCc1c(COC(=O)NC(C)C)c2sc3ccccc3n2c1-c1ccc(F)cc1 | 50 nM | 160 nM | 190 nM | 33000 nM | 24200 nM | 11900 nM | 53500 nM | 3.2 | 3.8 | 620 nM | 350 nM | 20% | 20% | 20% | Active |  |
| CC(C)NC(=O)OCc1c(COC(=O)NC(C)C)c2sc3ccccc3n2c1-c1ccc(F)c(F)c1 | 330 nM | 190 nM | 300 nM | 30800 nM | 29600 nM | 15100 nM | 74800 nM | 0.57 | 0.9 | 1000 nM | 410 nM |  |  |  |  |  |
| OCc1c(CO)c2sc3ccccc3n2c1C1CC1 | 970 nM | 2310 nM | 2440 nM | 13300 nM | 10700 nM | 7120 nM | 28700 nM | 2.37 | 2.51 |  |  |  |  |  |  |  |
| OCc1c(CO)c2sc3ccccc3n2c1-c1ccc(F)cc1 | 1060 nM | 2560 nM | 3720 nM | 9270 nM | 13800 nM | 6030 nM | 15500 nM | 2.41 | 3.5 | 2770 nM | 9590 nM |  |  |  | Active |  |
| CCNC(=O)OCc1c(COC(=O)NCC)c2sc3ccccc3n2c1-c1ccc(F)cc1 | 70 nM | 380 nM | 450 nM | 13600 nM | 23700 nM | 11500 nM | 29200 nM | 5.42 | 6.42 | 480 nM | 520 nM | 20% | 20% | 20% | Active | >99% |
| CC[C@]1(O)C[C@@H]2CN(CCc3c([nH]c4ccccc34)[C@@](C(=O)OC)(c3cc4c(cc3OC)N(C)[C@H]3[C@@](O)(C(=O)OC)[C@H](OC(C)=O)[C@]5(CC)C=CCN6CC[C@]43[C@@H]65)C2)C1 [VINBLASTINE] |  |  |  |  |  |  |  | 106 | 680 |  |  |  |  |  |  |  |
| OCc1c(CO)c2sc3ccccc3n2c1-c1ccc(F)c(Cl)c1 | 3090 nM |  |  |  |  |  |  |  |  |  |  |  |  |  |  |  |
| COc1cc(-c2c(COC(=O)NC(C)C)c(COC(=O)NC(C)C)c3sc4ccccc4n23)cc(OC)c1OC | 1050 nM |  |  |  |  |  |  |  |  |  |  |  |  |  |  |  |
| CCNC(=O)OCc1c(COC(=O)NCC)c2sc3ccccc3n2c1-c1cc(OC)c(OC)c(OC)c1 | 320 nM |  |  |  |  |  |  |  |  |  |  |  |  |  |  |  |
| COc1ccc(-c2c(COC(=O)NC(C)C)c(COC(=O)NC(C)C)c3sc4ccccc4n23)cc1OC | 110 nM |  |  |  |  |  |  |  |  |  |  |  |  |  |  |  |
